Among the data in a melting point compilation (Tetko et al.; mined from patent text by program, amines drawn as free bases though some values may be those of a salt) are melting point values, retold here.

Bounds are passed on as bounds.

`CC(C)(C)Nc1c(NCc2cccc(OC(F)(F)F)c2)c(=O)c1=O` showed a melting point of 210 to 212 °C.

Compound `COc1ccc(COc2nc(Cl)c(C(C)C)c(OCc3ccc(OC)cc3)n2)cc1` gave a melting point of 69 to 70 °C.

`COc1ccc(C2=NN(C3CCN(C(C)=O)CC3)C(=O)C3CC=CCC23)cc1Cl` (stereo not given) had a melting point of 206 to 208 °C.

Compound `COc1cccc(CN2CCN(CC(=O)N3CC=C(c4ccccc4)n4ncc(C#N)c43)CC2)c1` gave a melting point of 98 to 100 °C. The figure for `CC1CC(=O)NN=C1c1ccc(NC(=O)C2CC2(Cl)Cl)cc1` (stereo not given) is 252 to 253 °C; for `CN1CCCC1c1ccc(Nc2cc(-c3cc(F)cc(N4CCc5c(sc6c5CCCC6)C4=O)c3CO)cn(C)c2=O)nc1` (stereo not given) it is 164 to 166 °C. The figure for `CCOC(=O)C1=C(C)N(C)C(C)=C(C(=O)OCC)C1c1ccc(OC(C)(C)C(=O)OCC)cc1` is 88 °C; for `CCCCCCCCCCCCCCCCCCNC(=O)SCC(CO)OC` (stereo not given) it is 62 to 63 °C. Then `COc1cc(OC)cc(C(=O)NCC23CC4CC(CC(C4)C2)C3)c1`, with 130 to 133 °C. As for `CCn1c(=O)ccc2cnc(Nc3ccc(N(C)C)cc3)nc21`, the melting point was 189 to 191 °C. For the compound `O=Cc1cc2n(n1)-c1ccc(Cl)cc1C(c1ccccc1)=NC2`, the melting point was in the range of 170 to 172 °C.

`COc1cc(C(=O)O)ccc1S(=O)(=O)n1c(=O)n(C2CCCCC2)c2cc(OC3CCCC3)ccc21` gave a melting point of 245 °C. Then `Cc1nnc(N2N=C(c3cc(C)c([N+](=O)[O-])c(C)c3)c3cc4c(cc3C[C@H]2C)OCO4)o1`, with 132 to 133 °C; and `COc1ccc2nc(Nc3cc(C)cs3)[nH]c2c1`, with 143 to 146 °C; and `CC(C)(C)n1cc(-c2ccc(-c3ccccc3)cc2)c2c(N)ncnc21`, with 212 to 214 °C. `COc1ccc(C2(C#N)CCC(=O)CC2)c2c1OC(C)(C)O2` gave a melting point of 153 to 154 °C. The figure for `COc1ccc(/C(=N\O)c2cccc(NS(=O)(=O)N(C)C)c2)cc1` is 160 to 161 °C.

Compound `Cc1nc(N)nc(N)c1CCCc1cc(Cl)c(Cl)cc1Cl` returned a melting point of 215 °C. Then `CC(C)(C)OC(=O)NCCNC(=O)C1CCN(C(=O)OC(C)(C)C)CC1`, with 172 to 174 °C; and `CCc1ccc2c(c1)CC(NC(=O)C(F)(F)F)C2` (stereo not given), with 112 to 114 °C; and `Nc1nc2ccc(S(=O)(=O)n3c(CCCC(=O)O)cc4nc(Cl)ccc43)cc2o1`, with 273 °C. The figure for `CON=C(C)c1cccc(NC(=O)NCC(=O)N(C)c2ccc(Cl)c(COc3cccc4ccc(C)nc34)c2Cl)c1` is 218 to 224 °C; for `CC1CC(=O)NN=C1c1ccc(NC2=CC(=O)CC2)cc1` (stereo not given) it is > 300 °C; for `CC(C)Oc1cc(CCC(=O)NS(=O)(=O)Cc2ccccc2)n(Cc2ccc(Cl)cc2Cl)n1` it is 183 to 184 °C. Then `NC1=NC2=NN(c3ccco3)NC2=C2N=CN(Cc3ccc(F)cc3)N12`, with 266 to 268 °C; and `O=c1[nH]cc(F)c(=S)[nH]1`, with 254 to 255 °C; and `O=C(Nc1ccc([N+](=O)[O-])cc1)N1CC=CCC1`, with 169 to 170 °C.

Take `NC(CSc1ccccc1N)=NO`: the melting point came out at 80 °C. Then `N#CCCNC(=O)c1cccc(-c2ccc3c(c2)C(NCc2ccc(Cl)cc2Cl)CC3)c1` (stereo not given), with 126 to 130 °C; and `CCCCc1nn(-c2ccc(C(F)(F)F)cn2)cc1C(=O)OCC`, with 58 to 59 °C. Take `C#CCCCOc1c(C)cc(C#N)cc1C`: the melting point fell in the range of 48 to 49 °C. Then `N#Cc1c(N2CCN(C(=O)c3cccs3)CC2)c2cccnc2n(C2CCCCC2)c1=O`, with 192 °C; and `COc1ccc(CCCCCCCCO)cc1`, with 47 to 49 °C. The figure for `CSCC(O)(Cn1cncn1)c1ccc(Cl)cc1Cl` (stereo not given) is 117 to 119 °C.

`CC(C)(C)c1ccc(-c2c(-c3ccncc3)sc3nc(=O)cc(N)n23)cc1` came in with a melting point of 259 to 262 °C. Then `CCOC(=O)c1cn(Cc2ccccc2)nc1OCc1ccccc1`, with 71 to 72 °C; and `Nc1ccc(Cl)cc1Cc1ccccc1F`, with 175 to 181 °C; and `Fc1ccc(-c2cc(N3CCN(CC4CC4)CC3)nc3c2CCCCCC3)cc1`, with 109 to 110 °C.

Compound `Cc1nnc2cc(-c3ccccc3)c3cc(Cl)ccc3n12` had a melting point of 254 to 255 °C. `OC1CSC(Oc2cncc(-c3cccs3)c2)C(O)C1O` (stereo not given) gave a melting point of 205 °C. Then `CCCCCCCCCc1ccc(C(Sc2cccc(NC(=O)CC(=O)OC)c2)C(=O)CCCC(=O)OC)cc1` (stereo not given), with 88 to 91 °C. For the compound `OCCN1CCN(C2=Nc3cc(Br)ccc3Oc3cscc32)CC1`, the melting point lay in the range of 150 to 152 °C. Then `Cc1ccc(NC(=O)c2ccccc2CN2C(=O)C3(COc4cc5c(cc43)CCO5)c3ccccc32)c(C)c1` (stereo not given), with 207 to 208 °C; and `CCOC(=O)C(=O)CC(=O)CC(=O)c1ccc(Cl)cc1`, with 93 to 94 °C; and `CCCCc1nc(Cl)c(C=O)n1Cc1ccc(-c2nnn(C(c3ccccc3)(c3ccccc3)c3ccccc3)n2)cc1`, with 154 to 157 °C. Then `Cc1ccc(C#Cc2cnc(-c3ccc(C(F)(F)F)cc3)s2)s1`, with 107 to 108 °C; and `CCc1cccc2c3c([nH]c12)C(CC)(CC(=O)OC)OCC3=NO` (stereo not given), with 188 to 190 °C; and `O=S(=O)(Nc1ccccc1/C=C/c1ccncc1)c1ccc(OC(F)(F)F)cc1`, with 151 to 153 °C.

Turning to `CC(=O)OCCSCCOc1ccc(CCC(=O)O)cc1`, the melting point is 48 to 49 °C. The figure for `NS(=O)(=O)c1cc2ccc(OCC3CO3)cc2s1` (stereo not given) is 148 to 149 °C; for `CCCCCc1c(C(C)C)nc(C(C)C)c(C(C)CO)c1-c1ccc(F)cc1` (stereo not given) it is 77 to 79 °C.

In the case of `CCNC(=O)c1ccc(N2CCN(Cc3ccc4c(c3)NC(=O)C(C)O4)CC2)c(Cl)c1` (stereo not given), the melting point is 239 to 243 °C. In turn, `O=C1CCC(C2CCCCC2)CC1C(=S)Nc1ccccc1` (stereo not given) displayed a melting point of 150 °C. Turning to `CCC(C)(C)OC(=O)NC(C)(Cc1c[nH]c2ccccc12)C(=O)NCCc1ccc(OC)cc1` (stereo not given), the melting point is 128 to 130 °C. The figure for `COC(=O)C12CC(C(=O)OC)(C1)C2` is 92 °C; for `CN1CCC=C(c2nsnc2SCCCC(=O)O)C1` it is 99 to 101 °C; for `CC(=O)Nc1ccc(S(=O)(=O)N2CCN(c3c(F)cc4c(=O)c(C(=O)O)cn(CC(C)C)c4c3F)CC2)cc1` it is 181 to 183 °C. Then `CCOC(=O)C(=C1SC(=O)N(CC(=O)O)C1=O)c1csc(NC(C)=O)n1`, with 288 to 290 °C; and `CN(CCOc1ccc(/C=C/CO)cc1F)c1ccccn1`, with 80 to 81 °C. Regarding `CC(C)(C)[Si](C)(C)Oc1ccc2cc3c(cc2c1)C(=O)c1cc2ccc(O[Si](C)(C)C(C)(C)C)cc2cc1C3=O`, the melting point was < 270 °C. With `COCO[C@H]1C(=O)Nc2ccccc2S[C@H]1c1ccc(OC)cc1`, the melting point is 125 to 126 °C. In the case of `CCCc1c(OCCCOc2cccc(C(=O)O)c2)ccc(C(C)=O)c1O`, the melting point was in the range of 142 to 143 °C. The figure for `O=c1ccc(S(=O)(=O)c2ccc(-c3ccccc3)cc2)n[nH]1` is 219 to 220 °C. The figure for `O=P(O)(O)COc1ccc2c(c1)[nH]c1ccccc12` is 291 °C; for `COc1ccc(C(=O)Nc2ccccc2)cc1NCc1ccc(N(C)C)cc1` it is 195 to 197 °C.

Take `Nc1ccc(-c2cc3c(N4CCc5ccccc54)ncnc3[nH]2)cc1`: the melting point is > 300 °C.

The compound `CC(C)(CO)Nc1nc(SCc2cccc(F)c2F)nc2nc(N)sc12` showed a melting point of 231 to 234 °C. Consider `CC(C)(C)C(=O)Nc1onc2c1CCC2`, for which the melting point amounted to 113 °C. The compound `CC(C)C(=O)CNC(=O)c1ccc(F)cc1` registered a melting point of 107 to 108 °C. In turn, `CSc1c(C#N)c(=O)n(C)c(=O)n1C` had a melting point of 118 to 120 °C. Then `CCCN1C(=O)CN(c2ccccc2)C1=O`, with 97 °C. The figure for `CCc1ccccc1-c1cccc(Br)c1OCc1cccc(C(=O)NCCO)c1` is 82.2 to 84.2 °C; for `O=C(O)c1oc2ccc(Cl)cc2c1-c1ccccc1` it is 247 to 248 °C; for `N=c1cc(N)nc2n1CCS2` it is 146 to 148 °C. Then `COC(=O)c1cccc2nc(OC)n(Cc3ccc(-c4ccccc4-c4nnn[nH]4)cc3)c12`, with 165 to 166 °C. As for `O=[N+]([O-])c1sc(Nc2c(Cl)cccc2Cl)nc1Cl`, the melting point is 141 °C. Then `COc1cc([N+](=O)[O-])ccc1-c1cccc(C(=O)O)c1`, with 88 to 88.5 °C. Then `COc1ccc2c(c1)Sc1ccc(Cl)cc1C(O)C2` (stereo not given), with 100 to 102 °C; and `O=c1[nH]c2cc(Cl)ccc2c(O)c1-c1ccc2ccccc2c1`, with > 350 °C. On to `O=C(Nc1ccc2ccc(Cl)nc2n1)c1cscn1`, for which the melting point was determined as 325 °C. The figure for `CCOc1ccc2nc(N3CCC(OC[C@H](C)NC(C)=O)CC3)sc2c1` is 129 to 131 °C. Consider `CSc1ccc(C=CC(=O)c2cccc(Br)c2)cc1`, for which the melting point came to 148 °C. The figure for `COc1ncc(Br)cc1/C=C/C(=O)c1ccc(Cl)cc1` is 168 to 172 °C; for `COc1ccc(F)c([N+](=O)[O-])c1C` it is 38 to 40 °C. Then `Fc1ccc2nc(-c3ccc(Cl)cc3)cc(Cl)c2c1`, with 169 to 172 °C; and `OCCNC(c1ccccc1)(c1ccccc1)c1ccccc1`, with 94 to 97 °C. The figure for `CC(C)(CO)NS(=O)(=O)c1cccc(Br)c1` is 138 °C; for `Cc1cc2c(-c3cccc(-c4noc(=S)[nH]4)c3)c(CC(=O)Nc3ccc(F)cc3C(F)(F)F)c(=O)oc2cc1Cl` it is 178 to 180 °C. As to `OCC1(c2ccc(Cl)cc2)CC1c1ccc(-c2ccccc2)cc1` (stereo not given), the melting point lay in the range of 168 to 170 °C. Then `CCCCNC(=O)N(N)CCCC`, with 34 to 36 °C.
